Laboratory results from ChEMBL document CHEMBL1126743, “New pyridobenzodiazepine derivatives as potential antipsychotics: synthesis and neurochemical study” (J Med Chem, 1993).
Calls of active or inactive are those of the source. The rule behind the calls is not given here.

Columns and labels:
Rattus norvegicus [1] = experiment: In vivo inhibition of apomorphine-mediated stereotypy in rats administered subcutaneously at 10 mg/kg expressed as percent inhibition; type: functional; conditions: sc, route subcutaneous
[2] = biological target: Serotonin 2 (5-HT2) receptor (Rattus norvegicus, UniProt P30994+P08909+P14842)
Description: In vitro binding affinity against rat 5-hydroxytryptamine 2 receptor.

[3] = biological target: Muscarinic acetylcholine receptor
Description: In vitro binding affinity against Muscarinic acetylcholine receptors in rat brain.

D(1A) dopamine receptor = D(1A) dopamine receptor (Rattus norvegicus, UniProt P18901); experiment: biochemical
Description: In vitro binding affinity against Dopamine receptor D1 in rat striatal tissue

Rattus norvegicus [4] = organism: Rattus norvegicus; experiment: animal or person; conditions: sc
Rattus norvegicus [5] = organism: Rattus norvegicus; experiment: animal or person; conditions: sc, read-out: Inhibition
Rattus norvegicus [6] = experiment: In vivo inhibition of apomorphine-mediated stereotypy in rats administered subcutaneously at 20 mg/kg expressed as ED50 (mg/kg); type: functional; conditions: sc, route subcutaneous
Rattus norvegicus [7] = organism: Rattus norvegicus; experiment: animal or person; conditions: sc, read-out: Inhibition; remark: listed apart in the source
Rattus norvegicus [8] = experiment: In vivo inhibition of apomorphine-mediated stereotypy in rats administered subcutaneously at 20 mg/kg expressed as ED50 (mg/kg); Onactive; type: functional, organism-based; parameters: dose 20 mg/kg
Rattus norvegicus [9] = experiment: In vivo inhibition of apomorphine-mediated stereotypy in rats administered subcutaneously at 20 mg/kg expressed as percent inhibition; type: functional; conditions: sc, route subcutaneous
Rattus norvegicus [10] = experiment: In vivo inhibition of apomorphine-mediated stereotypy in rats administered subcutaneously at 20 mg/kg expressed as ED50 (mg/kg); Inactive; type: functional, organism-based; parameters: dose 20 mg/kg

Chain of D(1A) dopamine receptor (P18901 whole entry): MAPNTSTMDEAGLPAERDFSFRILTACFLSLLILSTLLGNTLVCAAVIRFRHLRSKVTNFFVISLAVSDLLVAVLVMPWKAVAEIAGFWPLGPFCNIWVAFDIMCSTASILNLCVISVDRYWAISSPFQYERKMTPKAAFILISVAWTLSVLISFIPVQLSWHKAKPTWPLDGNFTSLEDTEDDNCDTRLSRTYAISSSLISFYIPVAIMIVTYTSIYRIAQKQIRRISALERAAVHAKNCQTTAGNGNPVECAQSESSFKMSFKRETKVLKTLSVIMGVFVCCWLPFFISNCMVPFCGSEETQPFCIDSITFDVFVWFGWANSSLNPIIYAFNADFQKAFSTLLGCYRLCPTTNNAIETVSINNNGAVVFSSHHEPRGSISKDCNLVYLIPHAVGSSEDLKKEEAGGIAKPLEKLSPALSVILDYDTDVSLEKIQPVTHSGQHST

Compound	Ki [2] [nM]	Ki [3] [nM]	Ki (D(1A) dopamine receptor) [nM]	inhibition in vivo at 20 mg/kg (Rattus norvegicus [5]) [%]	also measured
CN1CCN(C2=Nc3cccnc3Nc3ccc(Cl)cc32)CC1	6.2	65	2140		inhibition in vivo at 10 mg/kg (Rattus norvegicus [1]): 75%
CN1CCN(C2=Nc3ccccc3Sc3ccc(Cl)cc32)CC1 [CLOTHIAPINE]	0.6	136	14	100	ED50 (Rattus norvegicus [4]): 0.72 mg/kg
O=C(CCCN1CCC(O)(c2ccc(Cl)cc2)CC1)c1ccc(F)cc1 [HALOPERIDOL]					ED50 (Rattus norvegicus [6]): 0.14 mg/kg; inhibition in vivo at 0.6 mg/kg (Rattus norvegicus [7]): 100%
CN1CCN(C2=Nc3ccccc3N(C=O)c3ncccc32)CC1	7120	3415	30200	0	
CN1CCN(C2=Nc3ccccc3Nc3ncccc32)CC1	103	303	726	0	
CN1CCN(C2=Nc3ccccc3N(C=O)c3ccncc32)CC1	2053	3450	3020	0	
CN1CCN(C2=Nc3cc(Cl)ccc3Sc3ccccc32)CC1 [ISOCLOTHIAPINE]	4.1	5.6	240		ED50 (Rattus norvegicus [8]): inactive
Cc1ccc2c(c1)C(N1CCN(C)CC1)=Nc1cccnc1N2	94	48	398	75	
CN1CCN(C2=Nc3ccccc3Nc3ccncc32)CC1	29	3260	302	45	
CN1CCN(C2=Nc3cccnc3Nc3ccccc32)CC1	124	665	2400	0	
CN1CCN(C2=Nc3ccccc3Nc3ccc(Cl)cc32)CC1 [ISOCLOZAPINE]		21	28		ED50 (Rattus norvegicus [4]): 1.7 mg/kg
CN1CCN(C2=Nc3cccnc3Nc3ccc(F)cc32)CC1	124	415	677		inhibition in vivo at 20 mg/kg (Rattus norvegicus [9]): 55%
CN1CCN(C2=Nc3cnccc3Nc3ccccc32)CC1	837	430	13500		
CN1CCN(C2=Nc3cccnc3N(C)c3ccccc32)CC1	2900	175	6020	0	
CN1CCN(C2=Nc3cccnc3Nc3cc(Cl)ccc32)CC1	48	366	214	70	
Cc1cnc2c(c1)N=C(N1CCN(C)CC1)c1ccccc1N2	103	523	1140		
CN1CCN(C2=Nc3cc(F)ccc3Cc3ccccc32)CC1 [FLUPERLAPINE]	3.8	25	141		
CN1CCN(C2=Nc3cc(Cl)ccc3Nc3ccccc32)CC1 [CLOZAPINE]				0	ED50 (Rattus norvegicus [10]): inactive
CN1CCN(C2=Nc3cccnc3N(C=O)c3ccccc32)CC1	1870	311	47900	0	
